Measurements: patent US10214491B2, “Activators and therapeutic applications thereof” (THE JOHNS HOPKINS UNIVERSITY, priority 2007, dated 2019)

Legend:
[1] = tested on: p53, Mdm2 and p21 levels in A375 melanoma cells; assay: Immunoblotting and immunofluorescence for p53, Mdm2 and p21 levels; type: cell-based; conditions: A375, 24 hours
Description: To study the effect of compounds on endogenous protein levels, A375 melanoma cells were treated with the compounds for 24 hours. Cellular lysates were prepared in lysis buffer containing 0.5% NP-40 with proteinase inhibitors. Protein (20-30 μg) was separated by sodium dodecyl sulphate-polyacrylamide gel electrophoresis (SDS-PAGE) followed by transfer to PVDF membrane (Immobilon™-P, Millipore, Bedford, Mass., USA). Immunoblotting was carried out using DO-1 antibody for p53, 2A10 for Mdm2 and anti-p21 (Becton Dickinson) to detect p21, followed by secondary antibodies conjugated with horseradish peroxidase (p53) or biotin followed by streptavidin-horseradish peroxidase (Mdm2 and p21) after which proteins were detected with enhanced chemiluminescence (ECL, Amersham Life Sciences). Equal protein loading was verified using GAPDH (p9.B.88, Europa Bioproducts Ltd, UK) as a protein loading control.
Immunofluorescence staining was carried out to determine the correct localisation of p53 and to detect H2AX phosphorylation indicative of genotoxic stress. Cells were treated with the compounds and fixed in paraformaldehyde (3.5 PFA, 25 min RT). The coverslips were permeabilised in 0.5% NP-40 and blocked in 3% bovine serum albumin (BSA). p53 was detected by staining with FL-393 antibody (Santa Cruz, 1:50, 1 h at +37° C.) followed by Alexa-594 conjugated secondary antibody (Molecular Probes, 1:200, 1 h at +37° C.), phospho-H2AX was detected by staining with anti-H2AX (P-Ser-139) antibody (Upstate, 1:200 1 h at +37° C.) followed by Alexa-488 conjugated secondary antibody (Molecular Probes, 1:200, 1 h at +37° C.). Nuclei were stained with Hoechst 33342. Images were captured using the Zeiss Axioplan fluorescence microscope equipped with Zeiss AxioCam HRc CCD-camera and AxioVision 4.5 software using 40×, NA=0,75 objective, Chroma 31000, Chroma41001 and 41004 filters for Hoechst, Alexa488 and Alexa594, respectively.

[2] = tested on: WS-1 diploid fibroblast; assay: WST-1 cell viability assay, WS-1; type: cell-based, human; conditions: Homo sapiens, 72 h, three days
Description: (§1) The effect of the compounds selected using the screening assay on the viability of several tumor cell lines as well as diploid cell lines and cell strains was studied. Cells were plated in 96-well plates at a density of 10,000 cells/100 μL/well and were incubated overnight. The following day compound dilutions ranging from 0 to 40 μM were applied to the cells in triplicate and the cells were incubated with the compounds for three days. Cell viability was assayed using the WST-1 cell proliferation reagent (Roche Diagnostics, Germany) The WST-1 reagent was diluted 1:10 in cell culture media and 100 μL of the reagent dilution was applied onto cells followed by 1 hour incubation at +37° C. The specific absorbance was measured at 450 nm and a reference absorbance was measured at 690 nm. […] Analysis for Protein Levels

[3] = tested on: normal human primary melanocytes; assay: WST-1 cell viability assay, melanocytes; type: cell-based; conditions: Homo sapiens, 72 h, Melanocyte, three days
Description: as §1

[4] = tested on: A375 melanoma (WTp53); assay: WST-1 cell viability assay, A375; type: cell-based; conditions: Homo sapiens, A-375, 72 h; A375 melanoma (WTp53), three days, WST-1
Description: as §1

[5] = tested on: BC3-luc pleural effusion lymphoma cells; assay: Orthotopic xenograft model of pleural effusion lymphoma; type: in vivo; conditions: NOD-SCID mice
Description: An orthotopic xenograft model of pleural effusion lymphoma was used to assess the anti-tumor activities of compounds 15, 21 and 22. Female NOD-SCID mice (Charles River, France) were injected intraperitoneally with pleural effusion lymphoma cells carrying a stable NF-kappaB regulated luciferase reporter (BC3-luc cells) (Keller et al., 2006). The tumors were allowed to establish for three days after which the mice were imaged and divided into treatment (groups 4-5 mice per group). The compound treatments were initiated on day four. The mice received 2 mg/kg (cmp21) or 20 mg/kg (cmp15 and 22) every other/third day for seven times via i.p. injections, control mice received DMSO only. The mice were imaged prior to each compound injection. Imaging was carried out with Xenogen In Vivo Imaging System (IVIS), D-luciferin (Synchem OHG, Germany) was injected intraperitoneally (100 mg/kg) 10-15 min prior to each imaging. Quantitation was done using Igor Pro Carbon analysis software, bioluminescence was quantitated and plotted as total flux within a given ROI.

[6] = tested on: RPMI7951 (MUTp53); assay: WST-1 cell viability assay, RPMI-7951; type: cell-based; conditions: Homo sapiens, RPMI-7951, 72 h, three days
Description: as §1

[7] = tested on: A375 melanoma cells; assay: Flow cytometry cell cycle and apoptosis analysis; type: cell-based
Description: Cell cycle analysis and cellular apoptosis was assayed with flow cytometry (LSR, Beckton Dickinson). Cells were treated with the compounds and both floating and adherent cells were harvested and fixed in 70% ethanol at −20° C. followed by staining of DNA with propidium iodide. A total of 10,000 counts were collected and data was analysed using ModFit LT 3.1 software. Cells present in sub-G1 population were regarded as apoptotic.

[8] = tested on: Human intestinal endothelial cells; assay: WST-1 cell viability assay, intestinal endothelial cells; type: cell-based; conditions: Endothelial cell, 72 h, three days
Description: as §1

CN(C)CCNC(=O)c1cccn2c(=O)c3cc4ccccc4cc3nc12 [Compound 21]
Mdm2 induction ([1]; 0.5 μM): most prominent | induction of p21 cyclin kinase inhibitor ([1]; 0.5 μM): most prominent | IC50 [2]: 1.9 µM | IC50 [3]: > 40 µM | IC50 [4]: 0.7 µM | inhibition of tumor cell growth (bioluminescence) ([5]; 2 mg/kg i.p. seven times): did not have any effect | IC50 [6]: 3 µM | cell cycle / apoptosis phenotype ([7]; A375, 0.1 μM (three days) and 0.5 μM (six days)): G2-phase arrest and apoptosis | IC50 [8]: 2.7 µM

Cc1cc(C)c2nc3nc(C)cc(C)c3c(N)c2c1 [Compound 22, 2,4,7,9-tetramethylbenzo[b]-1,8-naphthyridin-5-amine]
Mdm2 induction ([1]; 5 μM): most prominent | IC50 [2]: 11.5 µM | IC50 [3]: 32.2 µM | IC50 [4]: 4.6 µM | inhibition of tumor cell growth (bioluminescence) ([5]; 20 mg/kg i.p. seven times): noticeable inhibition of the tumor cell growth | IC50 [6]: 13.3 µM | cell cycle / apoptosis phenotype ([7]; A375, three days at 10 μM or six days at 5 μM): G2-phase arrest and apoptosis | IC50 [8]: 14.5 µM
